The results in this text go back to US20110318270A1, “DRUG IDENTIFICATION PROTOCOL FOR TYPE 2 DIABETES BASED ON GENE EXPRESSION SIGNATURES” (VERVA PHARMACEUTICALS LTD, priority 2009, published 2011).

For assay [1], the system named is 3T3-L1 adipocytes. Description: Reversal of TNFα-induced insulin resistance, 2-deoxyglucose (2-DOG) uptake. It is filed as cell-based. To be noted: 5 mM ASA and/or 10 μM TGZ in final 24 h of 72 h TNFα treatment. As for the experimental part: Initially, a model of TNFα-induced insulin resistance in 3T3-L1 adipocytes was established as described previously (Sartipy and Loskutoff J Biol Chem 278:52298-52306, 2003). Following exposure of 3T3-L1 adipocytes to 3 ng/ml TNFα for 72 h, insulin resistance was determined by the ability of the cells to take up 2-deoxyglucose (2-DOG) in response to insulin. TNFα caused a 37% decrease in 2-DOG uptake compared with insulin-stimulated vehicle-treated cells (p<0.0001) (Table 1).
3T3-L1 adipocytes were either treated with vehicle—(Veh), 3 ng/ml TNFα-(TNF) or 3 ng/ml TNFα plus 10 μM TGZ and 5 mM ASA (TTA) as detailed above. Cells were then treated with insulin (0 or 10 nM) for 30 min followed by measurement of 2-deoxyglucose (2-DOG) uptake over the final 10 min of insulin stimulation. Data are presented as % change in 2-DOG uptake compared with vehicle-treated, insulin-stimulated cells and represent mean values±SEM of >3 independent experiments and each data point was assayed in triplicate. […] The amount of 2-DOG transported in vehicle-treated adipocytes was 20.5±3.4 pmol/min/well. Statistical analyses were performed using Student's t-Test assuming 2-tailed distribution and 2-sample equal variance.

Assay [2] has as its system 3T3-L1 adipocytes. Description: HA-tagged GLUT4 translocation to the plasma membrane. It is filed as cell-based. Particulars: 10 μM for 20 h (ASA 5 mM), then 0.5 nM insulin. As for the experimental part: FIGS. 2a and 2b are graphical representations of a compound stimulation of HA-tagged GLUT4 translocation to the plasma membrane in 3T3-L1 adipocytes. Adipocytes were incubated with 10 μM of each compound for 20 h prior to acute stimulation with 0.5 nM of insulin and measurement of HA-tagged GLUT4 translocation to the plasma membrane. a. The effect of the compound classes closest to TNFα plus ASA and TGZ co-incubated samples GES profile (see FIG. 1) on HA-tagged GLUT4 movement. Data are presented as fold change compared with 0.5 nM insulin alone set at 1.0 and represent mean values±SEM; n=12-40 per class. b. Individual CAI members effect on GLUT4 movement. […]
A secondary screen was next undertaken to test the 8 drug classes ranked most similar to the insulin re-sensitised TNFαplus ASA and TGZ co-treated samples to determine their ability to affect exogenous HA-tagged GLUT4 translocation to the plasma membrane in the presence of submaximal 0.5 nM insulin (Govers et al. Mol Cell Biol 24:6456-6466, 2004). Members from the sodium channel blockers, beta lactams, GABA antagonists, sulfamide antifolates, lipoxygenase inhibitors, dopamine antagonists, carbonic anhydrase inhibitors (CAIs) and antibiotics were incubated at 10 μM doses for 20 h and the overall effect of each class member was assessed and averaged.

Turning to `CC(=O)Oc1ccccc1C(=O)O` [ASA, aspirin], in the assay with 3T3-L1 adipocytes [1], the “reversal of TNFα impairment of insulin-stimulated 2-DOG uptake” value is listed as “fully reversed TNFα effects”. The “HA-GLUT4 translocation above submaximal insulin” value with 3T3-L1 adipocytes [2] is given as “increased”.
